The text below walks through data of US6537988B2, “Synergistic methods and compositions for treating cancer” (Bristol-Myers Squibb Company, priority 2000, dated 2003).

SMILES strings stand for the structures. ≈ marks a conversion by molar mass, not a printed value. Entries after “also recorded” stand apart in the source; their conditions may differ. Where two headings read alike, the source gives them in different places. A value given as a limit tells only on which side of the number the result lay.

In data set [1] the test system is advance HCT116 human colon carcinoma. Particulars: dose 20 mg/kg/inj, IV, Q7D × 4.
Description: Paclitaxel was administered IV at 20 mg/kg/inj, Q7D×4.
(§1) Tumor response was determined by measurement of tumors with a caliper twice a week until the tumors reached a predetermined “target” size of 0.5 or 1.0 g. Tumor weights (mg) were estimated from the formula:
(§2) Tumor response end-point was expressed in terms of tumor growth delay (T-C value), defined as the difference in time (days) required for the treated tumors (T) to reach a predetermined target size compared to those of the control group (C).
(§3) A tumor is defined as “cured” when there is no detectable disease at the time of study termination (Day >75 days post-tumor implantation); the interval between study termination and the end of drug treatment always exceeded 10 times the volume doubling time of any particular tumor type.
A short description of data set [2]: Maximum tolerated dose / regimen in tumor-bearing mice. The class given is in vivo, nude mice. The source says: The maximum tolerated dose (MTD) is defined as the dose level immediately above which excessive toxicity (i.e. more than one death) occurred. […] Activity is described at the OD.
For data set [3], the system named is Her-1 activated SAL-2 cancer cell line. The class given is cell-based. The following applies: 20 hours exposure.
Description: FIG. 18A: Clonogenic survival of the SAL-2 cell line following exposure to paclitaxel for 20 hours at the indicated concentrations.
The test system of data set [4] is HCT-116 human colon carcinoma cells. Briefly: Clonogenic cell colony-formation assay, stationary vs log phase cells. The following applies: for cytotoxicity against non-proliferating stationary cells: HCT-116, paclitaxel at concentrations as high as 162 nM; for fold more sensitive: cells in exponential growth (Day 2) vs stationary phase (Day 8) / fold less sensitive: cells in exponential growth (Day 2) vs stationary phase (Day 8): HCT-116 in vitro, figure legends.
Description: (§4) At the end of a 16 h drug exposure, monolayer cell cultures were dissociated by exposing the cells to 0.05% trypsin for 5 min at 37° C. Cells were resuspended in complete media (containing 10% FBS), counted with a Coulter Channelyzer, diluted and plated with 5 replicates per dilution, into plastic tissue culture petri dishes. The cells were incubated in a humidified atmosphere for 10 days at 37° C. Cell colonies were stained with crystal violet and those with >50 cells per colony were scored.

For data set [5], the system named is HCT116 human colon carcinoma. The following applies: Compound 2 125 mpk 24 h iv infusion; paclitaxel 24 mg/kg iv; alone or combined.
Description: as §1, §2
For data set [6], the system named is A2780 human ovarian cancer cells. Briefly: Colony formation of A2780 cells, CDK inhibitor plus Compound 2. In kind it is cell-based. Particulars: 1.5 μM, 4 hour treatment.
In data set [7] the test system is MCF-7 estrogen-dependent human breast carcinoma. Briefly: MCF-7 xenograft, tamoxifen plus Compound 2. In kind it is in vivo, nude mice. Particulars: tamoxifen 40 mpk PO Q2D×14, Compound 2 po 100 mpk qd×10, two courses. How it is done: Tamoxifen was administered PO, Q2D×14.
The majority of human breast cancers require estrogen for growth and tumor progression (estrogen-dependent). […] In order to assess the efficacy of the combined anti-cancer agents of the invention in a human breast cancer model, MCF-7 xenografts were grown in nude mice and treated as described herein.

Data set [8] has as its system advanced HCT116 human colon carcinoma. Particulars: dose 30 mg/kg/inj; IV, Q2D × 5.
Description: as §1, §2
In data set [9] the test system is HCT-116 human colon carcinoma cells.
Description: as §4
Data set [10] has as its system HCTVM46 human colon carcinoma. Briefly: Multidrug-resistant HCT/VM46 xenograft (FIGS. 13, 14). Particulars: single agents or Compound 1 followed 24 hr later with Compound 2.
Description: as §1, §2, §3
For data set [11], the system named is HT-29 human colon carcinoma. Briefly: Advanced HT-29 xenograft, gemcitabine plus Compound 2. The class given is in vivo, nude mice. The source says:
The agent primarily kills cells undergoing DNA synthesis (S-phase) and also blocks the progression of cells through the G1/S-phase boundary.

The mark [12] stands for this setting: read-out: IC90 Log (converted), log phase (proliferating) HCT116 cells.
Where [13] appears, read: read-out: IC90 Stationary, stationary phase (non-proliferating) HCT116 cells.
The mark [14] stands for this setting: IC90 Log / IC90 Stationary, HCT116.
Setting [15] is: read-out: IC90 Log (converted), log phase (proliferating) HCT116 cells, 16 h drug exposure.
Setting [16] is: read-out: IC90 Stationary, stationary phase (non-proliferating, Day 8) HCT116 cells, 16 h drug exposure.

By IC90 is commonly meant the point of the concentration-response curve where the effect stands at 90%. Regarding `CC(=O)O[C@H]1C(=O)[C@@]2(C)[C@H]([C@H](OC(=O)c3ccccc3)[C@]3(O)C[C@H](OC(=O)[C@H](O)[C@@H](NC(=O)c4ccccc4)c4ccccc4)C(C)=C1C3(C)C)[C@]1(OC(C)=O)CO[C@@H]1C[C@@H]2O` [Paclitaxel, paclitaxel], in [1], the “Tumor Response CR (%)” value came to 0%, the “Tumor Response LCK” value was 2.5 and the “Tumor Response PR (%)” value is reported as 20%. Besides, the “Tumor Response Cures (%)” value in data set [1] (Day 77) turned out to be 0%. In [2] (Pat-7 study, paclitaxel iv q3d×3, Compound 2 ip q3d×3), the maximum tolerated regimen was determined as 36 mg/kg. Moreover, in data set [3], the “sensitivity of exponentially growing SAL2 cells to single agent” value is reported as “relatively resistant”. Further, in data set [4], the “Non-proliferative cells selectivity ratio (fold)” value is less than 0.1 fold, the “cytotoxicity against non-proliferating stationary cells” value is on record as “essentially ineffective; also recorded: completely non-toxic” and the “fold more sensitive: cells in exponential growth (Day 2) vs stationary phase (Day 8)” value was greater than 10 fold. Also, the IC90 in data set [4] (setting [12]) was 17.8 nM. The IC90 in [4] (setting [13]) is greater than 162 nM. Also, the log cell kill in data set [5] stood at 0.6 LCK.
Regarding `CC(C)(C)c1cnc(CSc2cnc(NC(=O)C3CCNCC3)s2)o1` [Compound 9, N-[5-[[[5-(1,1-dimethylethyl)-2-oxazolyl]methyl]thio]-2-thiazolyl]-4-piperidinecarboxamide], the “effect of single agent” value in data set [6] is “no effect dose”.
`CC/C(=C(\c1ccccc1)c1ccc(OCCN(C)C)cc1)c1ccccc1` [Tamoxifen]: in data set [7], the “tumor remission / cures” value is listed as “no cures were observed”. Moreover, in data set [7] (alone or combined), the “effect on tumor growth” value is “markedly more active”.
Consider `O=c1[nH]cc(F)c(=O)[nH]1` [5-Fluorouracil, 5-fluorouracil], for which, in data set [4], the “cytotoxicity against non-proliferating stationary cells” value is on record as “essentially ineffective”. Further, the “Non-proliferative cells selectivity ratio (fold)” value in data set [4] (setting [14]) is less than 0.03 fold. Besides, the “IC90 Log” value in [4] (log phase HCT116 cells) is recorded as greater than 162 μg/ml. Besides, the “IC90 Stationary” value in [4] (stationary phase HCT116 cells) came out at 4.6 µg/mL (≈ 35.4 µM).
Turning to `N#Cc1ccc2c(c1)CN(S(=O)(=O)c1ccc(Br)s1)[C@H](Cc1ccccc1)CN2Cc1c[nH]cn1` [Compound 5, (R)-4-[(5-bromo-2-thienyl)sulfonyl]-7-cyano-2,3,4,5-tetrahydro-1-(1H-imidazol-4-ylmethyl)-3-(phenylmethyl)-1H-1,4-benzodiazepine], the “Non-proliferative cells selectivity ratio (fold)” value in data set [4] (setting [14]) amounted to 78.4 fold. Besides, the concentration for an effect of 90% (IC90) in data set [4] (setting [15]) was 84700 nM; in data set [4] (setting [16]) it was 1080 nM.
Regarding `CCc1c2c(nc3ccc(OC(=O)N4CCC(N5CCCCC5)CC4)cc13)-c1cc3c(c(=O)n1C2)COC(=O)[C@]3(O)CC` [CPT-11], in [8], the “Tumor Response CR (%)” value is recorded as 0%, the “Tumor Response LCK” value is 1.5 and the “Tumor Response PR (%)” value amounted to 50%. The MTD in [2] (CPT-11 IV (Q2D × 5), HCT116 study) is on record as roughly 30 mg/kg/inj.
For `C/C(=C\c1csc(C)n1)[C@@H]1C[C@@H]2O[C@]2(C)CCC[C@H](C)[C@H](O)[C@@H](C)C(=O)C(C)(C)[C@@H](O)CC(=O)O1` [Epothilone B, epothilone B], the “cytotoxicity against non-proliferating stationary cells” value in data set [9] was “essentially ineffective”. In data set [4], the “fold more sensitive: cells in exponential growth (Day 2) vs stationary phase (Day 8)” value is greater than 83 fold. Besides, the “Non-proliferative cells selectivity ratio (fold)” value in data set [4] (setting [14]) is less than 0.01 fold. Further, the values for the IC90 in data set [4] (setting [12]) and in data set [4] (setting [13]) were 1.3 nM and greater than 108 nM, respectively.
In the case of `C/C(=C\c1csc(C)n1)[C@@H]1C[C@@H]2O[C@]2(C)CCC[C@H](C)[C@H](O)[C@@H](C)C(=O)C(C)(C)[C@@H](O)CC(=O)N1` (relative stereo) [Compound 1, [1S-[1R*,3R*(E),7R*,10S*,11R*,12R*,16S*]]-7,11-dihydroxy-8,8,10,12,16-pentamethyl-3-[1-methyl-2-(2-methyl-4-thiazolyl)ethenyl]-4-aza-17-oxabicyclo[14.1.0]heptadecane-5,9-dione], the tumor cure entry in data set [10] is “did not induce tumor cure”. The log cell kill in data set [10] (maximum tolerated regimens, q4d×3) worked out at 1.6 LCK. Further, the maximum tolerated regimen is given as 15 mg/kg in data set [2] (HCTVM46 study FIG. 13, single agents, q4d×3) and 10 mg/kg in [2] (HCTVM46 study FIG. 14, Compound 1 iv q4d×3, Compound 2 ip q4d×3, single agents).
Turning to `CC(O)(CS(=O)(=O)c1ccc(F)cc1)C(=O)Nc1ccc(C#N)c(C(F)(F)F)c1` (centres unmarked) [Casodex®, bicalutamide], in data set [2] (Pca-2b-AI study, Compound 2 po q1D×10, Casodex® po q1D×4), the “maximum tolerated doses and regimens” value is given as 150 mpk.
Regarding `Nc1ccn([C@@H]2O[C@H](CO)[C@@H](O)C2(F)F)c(=O)n1` [Gemcitabine], the response rate in data set [11] (single agent gemcitabine 6 mg/kg/inj (so in the source)) is on record as 25%; in [11] (single agent gemcitabine 24 mg/kg/inj), 0%. Also, the MTD in data set [2] (gemcitabine IV, Q2D×4, HT-29 study) stood at 36 mg/kg/inj.
In the case of `COc1ccc(S(=O)(=O)N2Cc3cc(C#N)ccc3N(Cc3c[nH]cn3)C[C@H]2Cc2ccccc2)cc1` [Compound 7, (R)-7-cyano-2,3,4,5-tetrahydro-1-(1H-imidazol-4-ylmethyl)-4-[(4-methoxyphenyl)sulfonyl]-3-(phenylmethyl)-1H-1,4-benzodiazepine], the “Non-proliferative cells selectivity ratio (fold)” value in data set [4] (setting [14]) was determined as 2.7 fold. The results for the IC90 in [4] (setting [15]) and in data set [4] (setting [16]) were 26000 nM and 9600 nM, respectively.
Take `COCCCS(=O)(=O)N1Cc2cc(C#N)ccc2N(Cc2c[nH]cn2)C[C@H]1Cc1ccccc1` [Compound 4, (R)-4-(3-methoxypropylsulfonyl)-7-cyano-2,3,4,5-tetrahydro-1-(1H-imidazol-4-ylmethyl)-3-(phenylmethyl)-1H-1,4-benzodiazepine]: in [4], the “fold less sensitive: cells in exponential growth (Day 2) vs stationary phase (Day 8)” value was roughly 91.2 fold. Also, the “Non-proliferative cells selectivity ratio (fold)” value in data set [4] (setting [14]) was 86.9 fold. For the same molecule, the IC90 in data set [4] (setting [15]) is 91200 nM; in data set [4] (setting [16]), 1050 nM.
`CCCCS(=O)(=O)N1Cc2cc(C#N)ccc2N(Cc2c[nH]cn2)C[C@H]1Cc1ccccc1` [Compound 3, (R)-4-(butylsulfonyl)-7-cyano-2,3,4,5-tetrahydro-1-(1H-imidazol-4-ylmethyl)-3-(phenylmethyl)-1H-1,4-benzodiazepine]: the “Non-proliferative cells selectivity ratio (fold)” value in [4] (setting [14]) stood at 181.0 fold. Moreover, the IC90 in data set [4] (setting [15]) was 65000 nM; in [4] (setting [16]), 360 nM.
Turning to `N#Cc1ccc2c(c1)CN(S(=O)(=O)N1CCCCC1)[C@H](Cc1ccccc1)CN2Cc1c[nH]cn1` [Compound 6, (R)-7-cyano-2,3,4,5-tetrahydro-1-(1H-imidazol-4-ylmethyl)-3-(phenylmethyl)-4-(1-piperidinylsulfonyl)-1H-1,4-benzodiazepine], in data set [4], the “fold less sensitive: cells in exponential growth (Day 2) vs stationary phase (Day 8)” value was roughly 67 fold. Besides, the “Non-proliferative cells selectivity ratio (fold)” value in data set [4] (setting [14]) is 64.2 fold. For the same molecule, the IC90 in data set [4] (setting [15]) is 66800 nM; in data set [4] (setting [16]), 1040 nM.
